Here are results for 24 molecules from US9381142B2, “Olfactory adaptation and cross-adapting agents to reduce the perception of body odors” (Monell Chemical Senses Center, priority 2002, dated 2016).

Assay [1] concerns male stress-derived axillary odor. The assay is described as follows: Cross-adaptation of male stress-derived axillary odor (odor panel, magnitude estimation of perceived intensity). The assay is classed as in vivo, human. As to conditions: for Magnitude of Reduction of Intensity of Male Stress-Derived Odor (MSDO), Males: male stress-derived odor perceived by men; for Magnitude of Reduction of Intensity of Male Stress-Derived Odor (MSDO), Females: male stress-derived odor perceived by women. The source says: (§1) The procedure relies upon an individual constantly sniffing an adapting agent, such as a fragrance, and occasionally a test odorant. Perceived intensity of the test odorant is obtained by using psychophysical, magnitude-estimation procedures. These perceived intensities are obtained every 30 seconds over the test period, and are then compared with baseline perceived intensities obtained before the individual began sniffing the adapting agent. Throughout the testing we observe adaptation to the adapting agent. Results during trials with an inserted test odorant, such as the axillary odor used here, are believed to be reasonably predictive. If the perceived intensity of the test odorant decreases during the test, then the adapting agent cross-adapts the test odorant and becomes a cross-adapting agent. If the cross-adapting agent is itself not offensive, then the cross-adapting agent becomes a candidate for use in formulations in consumer products to ameliorate malodors, such as axillary odor or fecal/urine odors, and odors related to the female menstrual cycle.
(§2) Collection of secretions: Apocrine secretions obtained under stressed conditions provided the axillary odor that was used as the test odorant to evaluate the effectiveness of various adapting agents. Secretions were obtained from males (ages 20 to 60 years) and females (ages 20 to 40 years) in good health. […] Volunteers prepared their axillae for collection of apocrine secretions by refraining from deodorant use for 3 days and shaving their axillae the morning of the collection day.
(§3) Volunteers were rested in a supine position. The axillary regions were washed with isopropanol-soaked pads and injected intradermally with 1:10,000 adrenalin (in physiologic saline). This injection stimulated the secretion of apocrine gland secretions, which were collected in 10 μl pipettes, passed into 0.25 ml Eppendorf tubes, and stored on ice (or frozen for longer storage). The amount of secretion collected varied greatly with the individual subject (≦10 μl). The apocrine secretions from each volunteer were combined by consecutively washing each Eppendorf tube with 2×300 μl of doubly distilled water. This aqueous-apocrine fluid was transferred to a 5 ml round-bottomed flask for hydrolysis. X-N. Zeng, J. J. Leyden, J. G. Brand, A. I. Spielman, K. J. McGinley, G. Preti, An Investigation of Human Apocrine Gland Secretion for Axillary Odor Precursors, 18 J. Chem. Ecol. 1039-1055 (1992); X-N. Zeng, J. J. Leyden, A. I. Spielman and G. Preti Analysis of the characteristic human female axillary odors: Qualitative comparison to males. 22 J. Chem. Ecol. 237-257 (1996).
(§4) Production of odor: To produce quantities of stress-derived axillary odor for testing purposes, we hydrolyzed the apocrine secretion. The aqueous solution was refluxed for 20 min with 0.5 ml, 5% aqueous sodium hydroxide under a stream of nitrogen. The mixture was allowed to cool to room temperature, and then it was cooled in ice prior to being acidified with 6 N HCl to pH 2. The resulting axillary odor developed in the reaction mixture upon acidification was used as the test odorant. The axillary odors generated by this in vitro technique are analogous to the malodors produced by stressed individuals.
Sixteen (16) individuals (8 of each gender) served on an odor panel. Subjects ranged in age from 22 to 55 years (mean 32.7±10.6 s.d.), were not pregnant (by verbal report), and were all non-smokers. All panel members were screened for adequate use of magnitude estimation (some people have difficulties maintaining a ratio scale, i.e., when an odorant is half as strong as the previous, these people fail to provide a number that is half the previous estimate) and further trained in its use during 2-3 training sessions. All 16 subjects were tested with samples of male malodor compared to each of the potential cross-adapting agents. […]

The subject of assay [2] is female stress-derived axillary odor. The assay is described as follows: Cross-adaptation of female stress-derived axillary odor (odor panel, magnitude estimation of perceived intensity). To be noted: for Magnitude of Reduction of Intensity of Female Stress-Derived Odor (FSDO), Males: female stress-derived odor perceived by men; for Magnitude of Reduction of Intensity of Female Stress-Derived Odor (FSDO), Females: female stress-derived odor perceived by women. Type of assay: in vivo, human.
Source text: as §1, §2, §3, §4
A separate panel of 24 subjects (12 males and 12 females) tested samples of female stress-derived axillary odor with potential cross-adapting agents, some of which were not included in Example 1 above. Some of the subjects assessing the effectiveness of cross-adaptation of male stress-derived axillary odor were also used in the experiment with female secretions. However, these two experiments were treated as independent events. All panel members were screened for adequate use of magnitude estimation and further trained in its use during two to three training sessions. […]

Where [3] appears, read: listed as E-isomer 3-methyl-2-pentenoic acid ethyl ester.
Further: key: best: Best = Superior Cross-Adaptation; good: Good = Adequate Cross-Adaptation; poor: Poor = Ineffective Cross-Adaptation.

As to `CCCCCC(C)=CC(=O)OCC` (single isomer, unassigned) [E-, Z-isomers (3:1) of 3-methyl-2-octenoic acid ethyl esters, 3-methyl-2-octenoic acid ethyl esters], in assay [1], the “Magnitude of Reduction of Intensity of Male Stress-Derived Odor (MSDO), Males” value (“Magnitude of Reduction … (MSDO), Males” below) is recorded as “best” and the “Magnitude of Reduction of Intensity of Male Stress-Derived Odor (MSDO), Females” value (“Magnitude of Reduction … (MSDO), Females” below) is “best”. Besides, in assay [2], the “Magnitude of Reduction of Intensity of Female Stress-Derived Odor (FSDO), Males” value (from here on “Magnitude of Reduction … (FSDO), Males”) is reported as “best” and the “Magnitude of Reduction of Intensity of Female Stress-Derived Odor (FSDO), Females” value (shortened to “Magnitude of Reduction … (FSDO), Females”) was “best”.
In the case of `CCOC(=O)C=C(C)CC` (single isomer, unassigned) [E-isomer of 3-methyl-2-pentenoic acid ethyl ester, 3-methyl-2-pentenoic acid ethyl ester], in assay [1], the “Magnitude of Reduction … (MSDO), Males” value is on record as “good” and the “Magnitude of Reduction … (MSDO), Females” value was “good”. Besides, in assay [1] (setting [3]), the “Magnitude of Reduction … (MSDO), Males” value is listed as “good” and the “Magnitude of Reduction … (MSDO), Females” value was “good”. In addition, in assay [2], the “Magnitude of Reduction … (FSDO), Males” value is reported as “poor” and the “Magnitude of Reduction … (FSDO), Females” value is reported as “poor”.
Take `CCOC(=O)C=C(C)CC` (single isomer, unassigned) [Z-isomer of 3-methyl-2-pentenoic acid ethyl ester, 3-methyl-2-pentenoic acid ethyl ester]: in assay [1], the “Magnitude of Reduction … (MSDO), Males” value is “best” and the “Magnitude of Reduction … (MSDO), Females” value is “poor”. In addition, the “Magnitude of Reduction … (MSDO), Males” value in assay [1] (listed as Z-isomer 3-methyl-2-pentenoic acid ethyl ester) was “best”. In assay [2], the “Magnitude of Reduction … (FSDO), Males” value was “poor” and the “Magnitude of Reduction … (FSDO), Females” value is reported as “poor”.
Consider `CC(=O)OC1CCCCC1C(C)(C)C` (centres unmarked) [Agrumex, 2-tert-butyl cyclohexyl acetate], for which, in assay [1], the “Magnitude of Reduction … (MSDO), Males” value is listed as “good” and the “Magnitude of Reduction … (MSDO), Females” value is recorded as “poor”. In addition, in assay [2], the “Magnitude of Reduction … (FSDO), Males” value is “poor” and the “Magnitude of Reduction … (FSDO), Females” value is recorded as “best”.
On to `COc1ccc(C=O)cc1` [Anisic Aldehyde, 4-methoxybenzaldehyde], for which, in assay [2], the “Magnitude of Reduction … (FSDO), Males” value is listed as “best” and the “Magnitude of Reduction … (FSDO), Females” value is “good”.
The corresponding values for `Cc1ccc2c(c1)OCC(=O)CO2` [Calone 1951, 7-methyl-314-dihydro-2H-1,5-benzodioxepin-3-one] are “good” and “good”.
As to `COC(C=C(C)CCC=C(C)C)OC` [Citrylal, Octa-2,6-dien; 1,1-dimethoxy-3-7-dimethyl], in assay [1], the “Magnitude of Reduction … (MSDO), Males” value is listed as “best” and the “Magnitude of Reduction … (MSDO), Females” value is “good”.
As for `C/C=C/C(=O)OC(C)C1CCCCC1` (centres unmarked) [Datilat, Cyclohexyl methyl carbinol crotonate], in assay [1], the “Magnitude of Reduction … (MSDO), Males” value is “poor” and the “Magnitude of Reduction … (MSDO), Females” value is on record as “poor”.
Consider `CCCCCC(C)=CC(=O)OCC` [E-isomer of 3-methyl-2-octenoic acid ethyl ester, 3-methyl-2-octenoic acid ethyl ester], for which, in assay [2], the “Magnitude of Reduction … (FSDO), Males” value was “good” and the “Magnitude of Reduction … (FSDO), Females” value is reported as “poor”.
The corresponding values for `CCOc1cc(C=O)ccc1O` [Ethyl Vanillin, 3-Ethoxy-4-hydroxybenzaldehyde] are “best” and “poor”.
`COC(=O)c1c(C)cc(O)c(C)c1O` [Evernyl, methyl 2,4-dihydroxy-3,6-dimethylbenzoate]: in assay [2], the “Magnitude of Reduction … (FSDO), Males” value was “poor” and the “Magnitude of Reduction … (FSDO), Females” value is on record as “good”.
On the same counts, the results for `O=C1CCCC=CCCCCCCCCCC1` [GLOBANONE ®, cyclohexadecen-5-one-1] are “good” and “poor”.
The corresponding values for `CC(C=O)Cc1ccc(C(C)(C)C)cc1` (stereo not drawn) [Lilial, 4-(1,1-dimethylethyl)-alpha-methylbenzenepropanal] are “good” and “poor”.
Take `CC(C)(O)CCCC1=CCC(C=O)CC1` (centres unmarked) [Lyral, 4-(4-hydroxy-4-methylpentyl)-3-cyclohexenE-1-carboxaldehyde]: in assay [2], the “Magnitude of Reduction … (FSDO), Males” value is reported as “good” and the “Magnitude of Reduction … (FSDO), Females” value is given as “poor”.
The corresponding values for `Cc1cccc(CC(C)(C)CO)c1` [MAJANTOL ®, 2,2-dimethyl-3-(methylphenyl)propanol] are “good” and “poor”.
As to `CC(C)C1CCC(C(C)O)CC1` (centres unmarked) [Mugetanol, 1-(4-isopropylcyclohexyl)ethanol], in assay [1], the “Magnitude of Reduction … (MSDO), Males” value is “good” and the “Magnitude of Reduction … (MSDO), Females” value is “poor”.
The corresponding values for `CC(=O)c1oc2ccccc2c1C` [Nerolione, 1-(3-bethyl-2-benzofuranyl)-ethanone] are “good” and “poor”.
On the same counts, the results for `CCC(C)(O)CCCC(C)C` (centres unmarked) [Tetrahydro Linalool, 3,7-Dimethyloctan-3-ol] are “best” and “poor”.
With `CC(O)C(C)CC1C(C)CCCC1(C)C` (centres unmarked) [Timbranol, Isomethyltetrahydroionol], in assay [1], the “Magnitude of Reduction … (MSDO), Males” value was “poor” and the “Magnitude of Reduction … (MSDO), Females” value is “poor”.
For the molecule `CC(=O)c1cc2c(cc1C)C(C)(C)C(C)CC2(C)C` (centres unmarked) [Tonalide, 7-Acetyl-1,1,3,4,4,6-hexamethyltetralin], in assay [1], the “Magnitude of Reduction … (MSDO), Males” value was “good” and the “Magnitude of Reduction … (MSDO), Females” value is recorded as “poor”.
The corresponding values for `CC=CC(=O)C1C(C)C=CCC1(C)C` (centres unmarked) [Δ-Damascone, 1-(2,6,6-trimethyl-3-cyclohexen-1-yl)-2-buten-1-one] are “best” and “good”.
Turning to `CC(=O)C=CC1C(C)=CCCC1(C)C` (stereo not drawn) [α-ionone, 4-(2,2,6-trimethyl-2cyclohexen-1-yl)-3-buten-2-one], in assay [2], the “Magnitude of Reduction … (FSDO), Males” value is reported as “good” and the “Magnitude of Reduction … (FSDO), Females” value is given as “good”.
Consider alpha-n-methylionone [Isoraldeine 70], for which, in assay [2], the “Magnitude of Reduction … (FSDO), Males” value is given as “best” and the “Magnitude of Reduction … (FSDO), Females” value was “poor”.
In the case of isobornyl cyclohexanol, in assay [1], the “Magnitude of Reduction … (MSDO), Males” value is reported as “good” and the “Magnitude of Reduction … (MSDO), Females” value is reported as “poor”.
